Measurements: the NIST ThermoML archive (doi:10.1016/j.jct.2015.11.008)
Numbers after ± are expanded uncertainties.

Assays:
[1] = 298.15 K, 101.33 kPa, Liquid; for mass density: Vibrating tube method
[2] = xn = mol fraction of the nth substance listed; details: 298.15 K, 101 kPa, Liquid; for mass density: Vibrating tube method
[3] = Concentric cylinders viscometry
[4] = Falling or rolling sphere viscometry
[5] = Concentric cylinders viscometry, x2 = 0.01995
[6] = Falling or rolling sphere viscometry, x2 = 0.01995

CCCC[n+]1ccc(C)cc1.O=S(=O)([N-]S(=O)(=O)C(F)(F)F)C(F)(F)F
viscosity [1, 3]: 55.7 ± 2.3 mPa·s
viscosity [1, 4]: 56.1 ± 2.4 mPa·s
mass density [1]: 1412.3 ± 2.1 kg/m3

CCCC[n+]1ccn(C)c1.O=S(=O)([N-]S(=O)(=O)C(F)(F)F)C(F)(F)F
viscosity [1, 3]: 50.9 ± 2.1 mPa·s
viscosity [1, 4]: 51.5 ± 2.1 mPa·s
mass density [1]: 1436.3 ± 2.1 kg/m3

CCCC[n+]1ccc(C)cc1.O=S(=O)([N-]S(=O)(=O)C(F)(F)F)C(F)(F)F + O
viscosity ([2]; Concentric cylinders viscometry, x2 = 0.00167): 55.7 ± 2.3 mPa·s
viscosity ([2]; Concentric cylinders viscometry, x2 = 0.00513): 55.3 ± 2.2 mPa·s
viscosity ([2]; Concentric cylinders viscometry, x2 = 0.01053): 54.8 ± 2.2 mPa·s
viscosity ([2]; Concentric cylinders viscometry, x2 = 0.01985): 53.9 ± 2.2 mPa·s
viscosity ([2]; Concentric cylinders viscometry, x2 = 0.04978): 50.4 ± 2 mPa·s
viscosity ([2]; Concentric cylinders viscometry, x2 = 0.1002): 45.6 ± 1.9 mPa·s
viscosity ([2]; Falling or rolling sphere viscometry, x2 = 0.00167): 56.1 ± 2.4 mPa·s
viscosity ([2]; Falling or rolling sphere viscometry, x2 = 0.00513): 56 ± 2.3 mPa·s
viscosity ([2]; Falling or rolling sphere viscometry, x2 = 0.01053): 55.1 ± 2.3 mPa·s
viscosity ([2]; Falling or rolling sphere viscometry, x2 = 0.01985): 54.2 ± 2.3 mPa·s
viscosity ([2]; Falling or rolling sphere viscometry, x2 = 0.04978): 51.3 ± 2.1 mPa·s
viscosity ([2]; Falling or rolling sphere viscometry, x2 = 0.1002): 46 ± 1.9 mPa·s
mass density ([2]; x2 = 0.00167): 1412.27 ± 2.1 kg/m3
mass density ([2]; x2 = 0.00513): 1412.02 ± 2.1 kg/m3
mass density ([2]; x2 = 0.01053): 1411.94 ± 2.1 kg/m3
mass density ([2]; x2 = 0.01985): 1411.55 ± 2.1 kg/m3
mass density ([2]; x2 = 0.04978): 1410.48 ± 2.1 kg/m3
mass density ([2]; x2 = 0.1002): 1408.83 ± 2.1 kg/m3

CCCC[n+]1ccn(C)c1.O=S(=O)([N-]S(=O)(=O)C(F)(F)F)C(F)(F)F + O
viscosity ([2]; Concentric cylinders viscometry, x2 = 0.00078): 50.9 ± 2.1 mPa·s
viscosity ([2]; Concentric cylinders viscometry, x2 = 0.00473): 50.6 ± 2.1 mPa·s
viscosity ([2]; Concentric cylinders viscometry, x2 = 0.0101): 49.9 ± 2 mPa·s
viscosity ([2]; Concentric cylinders viscometry, x2 = 0.01864): 49.3 ± 2 mPa·s
viscosity ([2]; Concentric cylinders viscometry, x2 = 0.05002): 45.9 ± 1.9 mPa·s
viscosity ([2]; Concentric cylinders viscometry, x2 = 0.1001): 41.7 ± 1.7 mPa·s
viscosity ([2]; Falling or rolling sphere viscometry, x2 = 0.00078): 51.5 ± 2.1 mPa·s
viscosity ([2]; Falling or rolling sphere viscometry, x2 = 0.00473): 50.8 ± 2.1 mPa·s
viscosity ([2]; Falling or rolling sphere viscometry, x2 = 0.0101): 50.5 ± 2.1 mPa·s
viscosity ([2]; Falling or rolling sphere viscometry, x2 = 0.01864): 49.4 ± 2.1 mPa·s
viscosity ([2]; Falling or rolling sphere viscometry, x2 = 0.05002): 46.8 ± 2 mPa·s
viscosity ([2]; Falling or rolling sphere viscometry, x2 = 0.1001): 42.3 ± 1.8 mPa·s
mass density ([2]; x2 = 0.00078): 1436.26 ± 2.1 kg/m3
mass density ([2]; x2 = 0.00473): 1436.04 ± 2.1 kg/m3
mass density ([2]; x2 = 0.0101): 1435.89 ± 2.1 kg/m3
mass density ([2]; x2 = 0.01864): 1435.57 ± 2.1 kg/m3
mass density ([2]; x2 = 0.05002): 1434.5 ± 2.1 kg/m3
mass density ([2]; x2 = 0.1001): 1432.47 ± 2.1 kg/m3

CCCCn1cc[n+](C)c1.F[B-](F)(F)F [1-butyl-3-methylimidazolium tetrafluoroborate]
viscosity [1, 3]: 108 ± 4.5 mPa·s
viscosity [1, 4]: 111.9 ± 5.6 mPa·s
mass density [1]: 1201.7 ± 2 kg/m3

CCCCn1cc[n+](C)c1.F[B-](F)(F)F [1-butyl-3-methylimidazolium tetrafluoroborate] + O
viscosity ([2]; Concentric cylinders viscometry, x2 = 0.00062): 108 ± 4.5 mPa·s
viscosity ([2]; Concentric cylinders viscometry, x2 = 0.005): 105.9 ± 4.4 mPa·s
viscosity ([2]; Concentric cylinders viscometry, x2 = 0.00993): 103.7 ± 4.3 mPa·s
viscosity [2, 5]: 99.5 ± 4.1 mPa·s
viscosity ([2]; Concentric cylinders viscometry, x2 = 0.04989): 87.9 ± 3.6 mPa·s
viscosity ([2]; Concentric cylinders viscometry, x2 = 0.09965): 71.4 ± 2.9 mPa·s
viscosity ([2]; Falling or rolling sphere viscometry, x2 = 0.00062): 111.9 ± 5.6 mPa·s
viscosity ([2]; Falling or rolling sphere viscometry, x2 = 0.005): 107.4 ± 5.3 mPa·s
viscosity ([2]; Falling or rolling sphere viscometry, x2 = 0.00993): 106.5 ± 5.2 mPa·s
viscosity [2, 6]: 99.9 ± 4.8 mPa·s
viscosity ([2]; Falling or rolling sphere viscometry, x2 = 0.04989): 89.6 ± 4.1 mPa·s
viscosity ([2]; Falling or rolling sphere viscometry, x2 = 0.09965): 72.5 ± 3.2 mPa·s
mass density ([2]; x2 = 0.00062): 1201.69 ± 2 kg/m3
mass density ([2]; x2 = 0.005): 1201.55 ± 2 kg/m3
mass density ([2]; x2 = 0.00993): 1201.36 ± 2 kg/m3
mass density ([2]; x2 = 0.01995): 1201.1 ± 2 kg/m3
mass density ([2]; x2 = 0.04989): 1200.18 ± 2 kg/m3
mass density ([2]; x2 = 0.09965): 1198.59 ± 2 kg/m3

CCCCn1cc[n+](C)c1.O=S(=O)([O-])C(F)(F)F [1-butyl-3-methylimidazolium trifluoromethanesulfonate]
viscosity [1, 3]: 90.7 ± 3.8 mPa·s
viscosity [1, 4]: 92.8 ± 4.3 mPa·s
mass density [1]: 1298.3 ± 2 kg/m3

CCCCn1cc[n+](C)c1.O=S(=O)([O-])C(F)(F)F [1-butyl-3-methylimidazolium trifluoromethanesulfonate] + O
viscosity ([2]; Concentric cylinders viscometry, x2 = 0.00022): 90.7 ± 3.8 mPa·s
viscosity ([2]; Concentric cylinders viscometry, x2 = 0.00612): 89.2 ± 3.7 mPa·s
viscosity ([2]; Concentric cylinders viscometry, x2 = 0.01): 88.2 ± 3.6 mPa·s
viscosity ([2]; Concentric cylinders viscometry, x2 = 0.01738): 86.2 ± 3.6 mPa·s
viscosity ([2]; Concentric cylinders viscometry, x2 = 0.04999): 79.7 ± 3.3 mPa·s
viscosity ([2]; Concentric cylinders viscometry, x2 = 0.1003): 70.4 ± 2.9 mPa·s
viscosity ([2]; Falling or rolling sphere viscometry, x2 = 0.00022): 92.7 ± 4.3 mPa·s
viscosity ([2]; Falling or rolling sphere viscometry, x2 = 0.00612): 91.3 ± 4.2 mPa·s
viscosity ([2]; Falling or rolling sphere viscometry, x2 = 0.01): 89.6 ± 4.1 mPa·s
viscosity ([2]; Falling or rolling sphere viscometry, x2 = 0.01738): 87.9 ± 4 mPa·s
viscosity ([2]; Falling or rolling sphere viscometry, x2 = 0.04999): 81.3 ± 3.7 mPa·s
viscosity ([2]; Falling or rolling sphere viscometry, x2 = 0.1003): 70.6 ± 3.1 mPa·s
mass density ([2]; x2 = 0.00022): 1298.32 ± 2 kg/m3
mass density ([2]; x2 = 0.00612): 1298.12 ± 2 kg/m3
mass density ([2]; x2 = 0.01): 1297.98 ± 2 kg/m3
mass density ([2]; x2 = 0.01738): 1297.72 ± 2 kg/m3
mass density ([2]; x2 = 0.04999): 1296.84 ± 2 kg/m3
mass density ([2]; x2 = 0.1003): 1295.4 ± 2 kg/m3

CCCC[N+](C)(C)C.O=S(=O)([N-]S(=O)(=O)C(F)(F)F)C(F)(F)F [butyltrimethylammonium bis(trifluoromethylsulfonyl)imide]
viscosity [1, 3]: 104.9 ± 4.4 mPa·s
viscosity [1, 4]: 104 ± 5 mPa·s
mass density [1]: 1392.9 ± 2.1 kg/m3

CCCC[N+](C)(C)C.O=S(=O)([N-]S(=O)(=O)C(F)(F)F)C(F)(F)F [butyltrimethylammonium bis(trifluoromethylsulfonyl)imide] + O
viscosity ([2]; Concentric cylinders viscometry, x2 = 6e-05): 104 ± 4.3 mPa·s
viscosity ([2]; Concentric cylinders viscometry, x2 = 0.00494): 103.5 ± 4.3 mPa·s
viscosity ([2]; Concentric cylinders viscometry, x2 = 0.01002): 101.4 ± 4.2 mPa·s
viscosity [2, 5]: 98.6 ± 4.1 mPa·s
viscosity ([2]; Concentric cylinders viscometry, x2 = 0.05012): 87.3 ± 3.6 mPa·s
viscosity ([2]; Concentric cylinders viscometry, x2 = 0.09979): 73 ± 3 mPa·s
viscosity ([2]; Falling or rolling sphere viscometry, x2 = 6e-05): 105 ± 5.1 mPa·s
viscosity ([2]; Falling or rolling sphere viscometry, x2 = 0.00494): 103.6 ± 5 mPa·s
viscosity ([2]; Falling or rolling sphere viscometry, x2 = 0.01002): 102.8 ± 5 mPa·s
viscosity [2, 6]: 99.6 ± 4.8 mPa·s
viscosity ([2]; Falling or rolling sphere viscometry, x2 = 0.05012): 88.2 ± 4.1 mPa·s
viscosity ([2]; Falling or rolling sphere viscometry, x2 = 0.09979): 73 ± 3.2 mPa·s
mass density ([2]; x2 = 6e-05): 1392.89 ± 2.1 kg/m3
mass density ([2]; x2 = 0.00494): 1392.7 ± 2.1 kg/m3
mass density ([2]; x2 = 0.01002): 1392.61 ± 2.1 kg/m3
mass density ([2]; x2 = 0.01995): 1392.23 ± 2.1 kg/m3
mass density ([2]; x2 = 0.05012): 1391.7 ± 2.1 kg/m3
mass density ([2]; x2 = 0.09979): 1390.15 ± 2 kg/m3
